Patent publication US8580814B2, “Methods of using (+)-1,4-dihydro-7-[(3S,4S)-3-methoxy-4-(methylamino)-1-pyrrolidinyl]-4- oxo-1-(2-thiazolyl)-1,8-naphthyridine-3-carboxylic acid for treatment of cancer” (priority 2006, dated 2013)
Several values for one entry are separate records, joined by “and”; a condition that tells them apart may be missing. Equal values may be shown once.

Columns and labels:
refractory solid tumors = assay: Clinical activity in patients with advanced solid tumors; assay type: in vivo, human; parameters: key to Best Response: partial response (PR); stable disease SD; Partial/Minor Responses (PR/MR); settings: for Iliac node: Baseline 5.5; for RMLL Lung / Rectosigmoid: Baseline 2.5; for RML Lung: Baseline 3.9; for RUL Lung: Baseline 4.7; for Liver met: Baseline 7.4
Procedure: The administered dose of SNS-595 can be delivered as a single dose such as, for example, an IV push of 10-15 minutes duration (e.g. a single bolus injection) or over time such as, for example, a 24-hour period (e.g., continuous infusion over time or divided bolus doses over time) and is repeated as necessary, for example, until the patient experiences stable disease or regression, or until the patient experiences disease progression or unacceptable toxicity. For example, stable disease for solid tumors generally means that the perpendicular diameter of measurable lesions has not increased by 25% or more from the last measurement. See e.g., Response Evaluation Criteria in Solid Tumors (RECIST) Guidelines, Journal of the National Cancer Institute 92(3): 205-216 (2000). Stable disease or lack thereof is determined by methods known in the art such as evaluation of patient symptoms, physical examination, visualization of the tumor that has been imaged using X-ray, CAT, PET, or MRI scan and other commonly accepted evaluation modalities.
SNS-595 was administered to patients with advanced solid cancers as an IV infusion over 10 minutes on 2 schedules. In the first schedule (A), a weekly dose of SNS-595 was administered for three weeks followed by at least 7 days off (qwk×3). In the second schedule (B), a dose of SNS-595 was administered once every three weeks (q3wk).
In both schedules, the starting dose of SNS-595 was 3 mg/m^2, and doses were escalated by sequential cohorts of 3. The doses were doubled until the first related adverse event at or above Grade 2 or until the first abnormal lab value. The doses were then escalated by a modified Fibonacci schema.
In study A, 21 patients (9 male, 12 female) were treated in 6 cohorts (dose range 3-24 mg/m^2/wk). In study B, 41 (25 male, 16 female) patients were treated in 9 cohorts (dose range 3-75 mg/m^2/wk). The median ages were 61 yrs (Study A) and 59 yrs (Study B), sex 12F/9M (Study A), 16F/25M (Study B), all patients had baseline European Cooperative Oncology Group Performance Status (ECOG PS) 0-2. Patient eligibility included refractory solid tumors and adequate organ function.

[1] = tested on: advanced or refractory acute leukemias; assay: Peripheral blasts in patients with advanced or refractory acute leukemias; assay type: in vivo, human; settings: six patients distributed across all dosing groups of Table 15, following cycle 1
Procedure: SNS-595 was administered to patients with advanced or refractory acute leukemias as a slow IV push. Diagnoses included AML (19 patients) and ALL (2 patients). All patients had disease refractory to or relapsed from prior therapy (median 3 prior regimens (range 1-6)). A total of 21 patients (9 female and 12 male; median age=64 yrs, range 21-80) were treated in five cohorts using two schedules. In the first schedule (A), a weekly dose of SNS-595 was administered for three weeks followed by 7 days off (qwk×3). In the second schedule (B), a dose of SNS-595 was administered twice a week for two weeks (biwk×2). The cycle duration, including days off, was 28 days for both schedules. […] Additional cycles were permitted if patients achieved stable disease or better. The starting dose was 18 mg/m^2 on schedule A and 9 mg/m^2 on schedule B, and dosage was escalated by cohort. Cohorts of 3-6 patients were accrued to doses using a modified Fibonacci sequence.

[2] = both studies, advanced solid cancers
[3] = initial dosage 3 mg/m^2, q3wk, Lung
[4] = initial dosage 6 mg/m^2, q3wk, Renal Cell
[5] = initial dosage 6 mg/m^2, qwk x3, Renal Cell
[6] = initial dosage 12 mg/m^2, q3wk, Lung
[7] = initial dosage 12 mg/m^2, qwk x3, Leiomyosarcoma
[8] = initial dosage 12 mg/m^2, qwk x3, Melanoma
[9] = initial dosage 15 mg/m^2, qwk x3, Mesothelioma (two patients)
[10] = initial dosage 15 mg/m^2, qwk x3, Nasopharyngeal
[11] = initial dosage 24 mg/m^2, q3wk, Adenocarcinoma (unknown origin)
[12] = initial dosage 24 mg/m^2, qwk x3, Salivary Gland
[13] = initial dosage 36 mg/m^2, q3wk, Colon
[14] = initial dosage 36 mg/m^2, q3wk, Ovarian
[15] = initial dosage 48 mg/m^2, q3wk, Lung
[16] = initial dosage 48 mg/m^2, q3wk, Ovarian (two patients)
[17] = initial dosage 60 mg/m^2, q3wk, Neuroendocrine
[18] = initial dosage 60 mg/m^2, q3wk, Ovarian
[19] = initial dosage 75 mg/m^2, q3wk, Müllerian

CN[C@H]1CN(c2ccc3c(=O)c(C(=O)O)cn(-c4nccs4)c3n2)C[C@@H]1OC [SNS-595, (+)-1,4-dihydro-7-[(3S,4S)-3-methoxy-4-(methylamino)-1-pyrrolidinyl]-4-oxo-1-(2-thiazolyl)-1,8-naphthyridine-3-carboxylic acid]
P-aortic node (refractory solid tumors; PR patient, Ovarian, C2, Baseline 1.7): 1.6 cm | Aortic node (refractory solid tumors; PR patient, Ovarian, C2, Baseline 2.4): 2.0 cm | Iliac node (refractory solid tumors; PR patient, Ovarian, C2): 5.0 cm | CA125 (refractory solid tumors; PR patient, Ovarian, C2, Baseline 467): 272 U/mL | P-aortic node (refractory solid tumors; PR patient, Ovarian, C4, Baseline 1.7): 1.5 cm | Aortic node (refractory solid tumors; PR patient, Ovarian, C4, Baseline 2.4): 2.2 cm | Iliac node (refractory solid tumors; PR patient, Ovarian, C4): 4.7 cm | CA125 (refractory solid tumors; PR patient, Ovarian, C4, Baseline 467): 176 U/mL | P-aortic node (refractory solid tumors; PR patient, Ovarian, C6, Baseline 1.7): 1.3 cm | Aortic node (refractory solid tumors; PR patient, Ovarian, C6, Baseline 2.4): 2.0 cm | Iliac node (refractory solid tumors; PR patient, Ovarian, C6): 3.9 cm | CA125 (refractory solid tumors; PR patient, Ovarian, C6, Baseline 467): 120 U/mL | RMLL Lung (refractory solid tumors; SD (MR) patient, Müllerian, C2): 2.5 cm | RML Lung (refractory solid tumors; SD (MR) patient, Müllerian, C2): 3.9 cm | RUL Lung (refractory solid tumors; SD (MR) patient, Müllerian, C2): 4.5 cm | RMLL Lung (refractory solid tumors; SD (MR) patient, Müllerian, C4): 2.5 cm | RML Lung (refractory solid tumors; SD (MR) patient, Müllerian, C4): 3.7 cm | RUL Lung (refractory solid tumors; SD (MR) patient, Müllerian, C4): 4.5 cm | RMLL Lung (refractory solid tumors; SD (MR) patient, Müllerian, C6): 2.6 cm | RML Lung (refractory solid tumors; SD (MR) patient, Müllerian, C6): 2.4 cm | RUL Lung (refractory solid tumors; SD (MR) patient, Müllerian, C6): 5.0 cm | Left upper lobe nodule (refractory solid tumors; SD (MR) patient, Nasopharyngeal, C2, Baseline 1.1): 1.0 cm | Rt upper lobe nodule 2 (refractory solid tumors; SD (MR) patient, Nasopharyngeal, C2, Baseline 1.5): 1.3 cm | Lingular nodule (refractory solid tumors; SD (MR) patient, Nasopharyngeal, C2, Baseline 1.6): 1.5 | Rt upper lobe nodule 1 (refractory solid tumors; SD (MR) patient, Nasopharyngeal, C2, Baseline 2.3): 1.5 cm | Aortic node (refractory solid tumors; SD (MR) patient, Ovarian (first), C2, Baseline 1.7): 1.5 cm | P-aortic node (refractory solid tumors; SD (MR) patient, Ovarian (first), C2, Baseline 1.8): 1.1 cm | Liver met (refractory solid tumors; SD (MR) patient, Ovarian (first), C2): 6.9 cm | CA125 (refractory solid tumors; SD (MR) patient, Ovarian (first), C2, Baseline 567): 811 U/mL | Aortic node (refractory solid tumors; SD (MR) patient, Ovarian (first), C4, Baseline 1.7): 1.2 cm | P-aortic node (refractory solid tumors; SD (MR) patient, Ovarian (first), C4, Baseline 1.8): 1.1 cm | Liver met (refractory solid tumors; SD (MR) patient, Ovarian (first), C4): 5.7 cm | CA125 (refractory solid tumors; SD (MR) patient, Ovarian (first), C4, Baseline 567): 419 U/mL | Aortic node (refractory solid tumors; SD (MR) patient, Ovarian (first), C6, Baseline 1.7): 1.8 cm | P-aortic node (refractory solid tumors; SD (MR) patient, Ovarian (first), C6, Baseline 1.8): 1.2 cm | Liver met (refractory solid tumors; SD (MR) patient, Ovarian (first), C6): 5.7 cm | CA125 (refractory solid tumors; SD (MR) patient, Ovarian (first), C6, Baseline 567): 274 U/mL | 3 mets (refractory solid tumors; SD (MR) patient, Ovarian (second)): 3 mets unchanged | Rectosigmoid (refractory solid tumors; SD (MR) patient, Ovarian (second), C2): 0.0 cm | CA125 (refractory solid tumors; SD (MR) patient, Ovarian (second), C2, Baseline 50): 18 U/mL | Rectosigmoid (refractory solid tumors; SD (MR) patient, Ovarian (second), C4): 0.0 cm | CA125 (refractory solid tumors; SD (MR) patient, Ovarian (second), C4, Baseline 50): 16 U/mL | Rectosigmoid (refractory solid tumors; SD (MR) patient, Ovarian (second), C6): 0.0 cm | CA125 (refractory solid tumors; SD (MR) patient, Ovarian (second), C6, Baseline 50): 15 U/mL | Best Response (refractory solid tumors; Table 11, Müllerian): SD (MR) | Best Response (refractory solid tumors; Table 11, Nasopharyngeal): SD (MR) | Best Response (refractory solid tumors; Table 11, Ovarian (three patients)): SD (MR) and PR | patients that achieved partial responses (refractory solid tumors; [2]): two patients | patients that achieved stable disease for over sixteen weeks (refractory solid tumors; [2]): seventeen patients | Best Response (refractory solid tumors; [3]): SD | Weeks on Therapy (refractory solid tumors; [3]): 18 Weeks | Best Response (refractory solid tumors; [4]): SD | Weeks on Therapy (refractory solid tumors; [4]): 18 Weeks | Best Response (refractory solid tumors; [5]): SD | Weeks on Therapy (refractory solid tumors; [5]): 16 Weeks | Best Response (refractory solid tumors; [6]): SD | Weeks on Therapy (refractory solid tumors; [6]): 53 Weeks | Best Response (refractory solid tumors; [7]): SD | Weeks on Therapy (refractory solid tumors; [7]): 16 Weeks | Best Response (refractory solid tumors; [8]): SD | Weeks on Therapy (refractory solid tumors; [8]): 16 Weeks | Best Response (refractory solid tumors; [9]): PR and SD | Weeks on Therapy (refractory solid tumors; [9]): 28 Weeks and 18 Weeks | Best Response (refractory solid tumors; [10]): SD | Weeks on Therapy (refractory solid tumors; [10]): 16 Weeks | Best Response (refractory solid tumors; [11]): SD | Weeks on Therapy (refractory solid tumors; [11]): 18 Weeks | Best Response (refractory solid tumors; [12]): SD | Weeks on Therapy (refractory solid tumors; [12]): 24 Weeks | Best Response (refractory solid tumors; [13]): SD | Weeks on Therapy (refractory solid tumors; [13]): 33 Weeks | Best Response (refractory solid tumors; [14]): SD | Weeks on Therapy (refractory solid tumors; [14]): 18 Weeks | Best Response (refractory solid tumors; [15]): SD | Weeks on Therapy (refractory solid tumors; [15]): 46 Weeks | Best Response (refractory solid tumors; [16]): PR and SD | Weeks on Therapy (refractory solid tumors; [16]): 24 Weeks and 30 Weeks | Best Response (refractory solid tumors; [17]): SD | Weeks on Therapy (refractory solid tumors; [17]): 58 Weeks | Best Response (refractory solid tumors; [18]): SD | Weeks on Therapy (refractory solid tumors; [18]): 33 Weeks | Best Response (refractory solid tumors; [19]): SD | Weeks on Therapy (refractory solid tumors; [19]): 46 Weeks | stable disease SD, range (refractory solid tumors; study A (qwk×3)): 16-24 wks | patients that achieved partial response (PR) (refractory solid tumors; study A (qwk×3), 21 patients): one patient | patients that achieved stable disease SD (refractory solid tumors; study A (qwk×3), 21 patients): six | patients with PR as best response (refractory solid tumors; study B (q3wk), 41 patients): one PR | patients with SD as best response (refractory solid tumors; study B (q3wk), 41 patients): 11 | reductions in peripheral blasts [1]: greater than 50%
